{"source": "patent US20010053771A1", "about": "“USE OF GLUCOSAMINE AND CLUCOSAMINE DERIVATIVES FOR QUICK ALLEVIATION OF ITCHING OR LOCALIZED PAIN” (priority 1997, published 2001)", "type_in_all_cases": "in vivo, human", "key": {"[1]": {"system": "patient suffering from tendinitis caused by practicing tennis", "assay": "Topical cream treatment of tendinitis caused by tennis (Example 2)", "conditions": "5% (w/w) in formulation 2 cream, applied on the skin during 2 minutes; person", "description": "Glucosamine or one or more of its derivatives was added in the appropriate amount to one of the following formulations. The compositions thus obtained were tested as described in the Examples. All percentages are by weight (w/w) unless otherwise indicated. A patient suffering from tendinitis caused by practicing tennis was treated with formulation 2 containing glucosamine sulphate 5% (w/w). The cream was normally applied on the skin during 2 minutes to allow the penetration. Pain relief occurred already after 50 seconds and lasted for at least 2 hours. After 12 hours the same patient was treated with formulation 2 without glucosamine. There was no pain relief after similar application."}, "[2]": {"system": "patient suffering from herpes simplex type I infection around the nose showing extensive fissures", "assay": "Topical treatment of herpes simplex type I lesions around the nose (Example 3)", "conditions": "3% (w/w) in formulation 3", "description": "Glucosamine or one or more of its derivatives was added in the appropriate amount to one of the following formulations. The compositions thus obtained were tested as described in the Examples. All percentages are by weight (w/w) unless otherwise indicated. A patient suffering from herpes simplex type I infection around the nose showing extensive fissures was treated with formulation 3 containing 3% glucosamine sulfate (w/w). Already after 30 seconds pain and itching relief occurred and lasted during 3 hours."}, "[3]": {"system": "patient suffering from pain in the knee caused by a light collision", "assay": "Topical treatment of knee pain after a collision (Example 4)", "conditions": "10% (w/w) in formulation 3", "description": "Glucosamine or one or more of its derivatives was added in the appropriate amount to one of the following formulations. The compositions thus obtained were tested as described in the Examples. All percentages are by weight (w/w) unless otherwise indicated. A patient suffering from pain in the knee caused by a light collision during a car accident was treated with formulation 3 containing 10% (w/w) glucosamine sulfate. Pain relief occurred after 50 seconds and lasted during 3 hours."}, "[4]": {"system": "patient suffering from sore throat caused by β-hemolytic streptococci", "assay": "Spray treatment of a patient with sore throat (Example 1)", "description": "Glucosamine or one or more of its derivatives was added in the appropriate amount to one of the following formulations. The compositions thus obtained were tested as described in the Examples. All percentages are by weight (w/w) unless otherwise indicated. A patient suffering from sore throat caused by β-hemolytic streptococci was treated with a water solution (formulation 1) of N-acetyl-glucosamine (8% w/w). The solution was sprayed into the mouth during 10 seconds in order to treat the infected area. Pain relief occurred already 20 seconds after application and lasted for at least 1,5 hour. 12 hours later the same patient was treated with spray containing glucosamine HCl (9% w/w and 20% glycerol and 10% alcohol in water). Pain relief occurred again very quickly, 36 seconds after, application and lasted for at least 2 hours."}, "[5]": {"system": "patient with a tendinitis due to the practice of bowling sport", "assay": "Topical treatment of tendinitis due to bowling (Example 6)", "conditions": "6% (w/w) in composition 3", "description": "Glucosamine or one or more of its derivatives was added in the appropriate amount to one of the following formulations. The compositions thus obtained were tested as described in the Examples. All percentages are by weight (w/w) unless otherwise indicated.\nA patient with a tendinitis due to the practice of bowling sport was treated 2 days after the onset of pain with composition 3 containing 6% (w/w) N-acetyl D-glucosamine. Pain relief occurred 25 seconds later."}, "[6]": {"system": "child suffering from diaper allergy", "assay": "Topical treatment of diaper allergy (Example 5)", "conditions": "5% (w/w) in composition 2; applications for 1 week, 3 times a day; male, 8 months", "description": "Glucosamine or one or more of its derivatives was added in the appropriate amount to one of the following formulations. The compositions thus obtained were tested as described in the Examples. All percentages are by weight (w/w) unless otherwise indicated. […]"}, "[7]": {"system": "patient with allergy for cats", "assay": "Topical treatment of itching from cat allergy (Example 7)", "conditions": "5% (w/w) in composition 3", "description": "Glucosamine or one or more of its derivatives was added in the appropriate amount to one of the following formulations. The compositions thus obtained were tested as described in the Examples. All percentages are by weight (w/w) unless otherwise indicated. A patient with allergy for cats (person) was confronted with a stroked cat (2 years old) in a closed room (6 m×4 m×3 m) during 10 minutes. 8 minutes later itching started all over the forehead and progressed after 15 minutes to the nose (external×internal). The patient was treated on the left side of the forehead with composition 3 and on the right side of the forehead with composition 3 containing 5% (w/w) glucosamine HCl. Itching completely disappeared after 45 seconds on the right side while there was still itching on the left side. The nose was also treated inside and outside with the active cream. Itching decreased drastically already after 50 seconds."}, "[8]": {"system": "patient suffering from arthritis urica", "assay": "Topical treatment of arthritis urica (Example 9)", "conditions": "9% (w/w) in composition 2; right foot, 4 successive treatments with an interval of 10 minutes; person", "description": "Glucosamine or one or more of its derivatives was added in the appropriate amount to one of the following formulations. The compositions thus obtained were tested as described in the Examples. All percentages are by weight (w/w) unless otherwise indicated. A patient suffering from arthritis urica, and not taking any medication, was treated with composition 2 containing 9% (w/w) glucosamine HCl all over the affected right foot by 4 successive treatments with an interval of 10 minutes."}, "[9]": {"system": "patient suffering from eczema (atopical) on the arm-bends", "assay": "Topical treatment of atopical eczema (Example 10)", "conditions": "8% (w/w) in composition 3; left arm; person", "description": "Glucosamine or one or more of its derivatives was added in the appropriate amount to one of the following formulations. The compositions thus obtained were tested as described in the Examples. All percentages are by weight (w/w) unless otherwise indicated. A patient suffering from eczema (atopical) (person) on the arm-bends was treated with composition 3 containing 8% (w/w) glucosamine HCl on the left arm and composition 3 on the right arm. Itching decreased drastically after 15 seconds and lasted during 2 hours only on the left arm. From the above it follows that the therapeutical compositions of the invention can be used to alleviate itching and pain which result from a variety of causes. The relief is obtained very quickly and lasts for a considerable period of time."}, "[10]": {"conditions": "8% w/w in water (formulation 1), sprayed into the mouth during 10 seconds, person"}, "[11]": {"conditions": "spray 9% w/w with 20% glycerol and 10% alcohol in water, same patient 12 hours later"}}}
{"smiles": "N[C@H]1C(O)O[C@H](CO)[C@@H](O)[C@@H]1O.O=S(=O)(O)O", "note": "(stereo partly drawn) [glucosamine sulfate, D-glucosamine sulfate]", "values": [{"measurement": "duration of pain relief", "setting": "[1]", "result": "at least 2 hours"}, {"measurement": "time to pain relief", "setting": "[1]", "result": 50, "unit": "s"}, {"measurement": "closure of fissures", "setting": "[2]; after 5 hours", "result": "most of the fissures were closed"}, {"measurement": "duration of pain and itching relief", "setting": "[2]; person", "result": 3, "unit": "h"}, {"measurement": "time to pain and itching relief", "setting": "[2]; person", "result": 30, "unit": "s"}, {"measurement": "pain after repeated treatment", "setting": "[3]; after 3 new successive treatments every 4 hours", "result": "the pain was completely gone"}, {"measurement": "duration of pain relief", "setting": "[3]; person", "result": 3, "unit": "h"}, {"measurement": "time to pain relief", "setting": "[3]; person", "result": 50, "unit": "s"}]}
{"smiles": "CC(=O)N[C@H]1C(O)O[C@H](CO)[C@@H](O)[C@@H]1O", "note": "(stereo partly drawn) [N-acetyl-glucosamine, N-acetyl D-glucosamine]", "values": [{"measurement": "duration of pain relief", "setting": "[4]; [10]", "result": "at least 1,5 hour"}, {"measurement": "time to pain relief after application", "setting": "[4]; [10]", "result": 20, "unit": "s"}, {"measurement": "time to pain relief", "setting": "[5]; 2 days after the onset of pain, person", "result": 25, "unit": "s"}, {"measurement": "pain after repeated treatment", "setting": "[5]; after 5 successive treatments every 2 hours", "result": "pain was completely reduced"}]}
{"smiles": "Cl.N[C@H]1C(O)O[C@H](CO)[C@@H](O)[C@@H]1O", "note": "(stereo partly drawn) [glucosamine HCl, D-glucosamine hydrochloride]", "values": [{"measurement": "duration of pain relief", "setting": "[4]; [11]", "result": "at least 2 hours"}, {"measurement": "time to pain relief after application", "setting": "[4]; [11]", "result": 36, "unit": "s"}, {"measurement": "relief of itching and pains", "setting": "[6]", "result": "always immediate relief of itching and pains"}, {"measurement": "time until itching decreased drastically", "setting": "[7]; nose treated inside and outside", "result": 50, "unit": "s"}, {"measurement": "time until itching completely disappeared", "setting": "[7]; right side of the forehead, person", "result": 45, "unit": "s"}, {"measurement": "duration of pain relief", "setting": "[8]", "result": 4, "unit": "h"}, {"measurement": "pain relief", "setting": "[8]", "result": "Gradually strong pain relief occurred"}, {"measurement": "duration of itching decrease", "setting": "[9]", "result": 2, "unit": "h"}, {"measurement": "time until itching decreased drastically", "setting": "[9]", "result": 15, "unit": "s"}]}
